Test results as given in patent US11834451B2 (priority 2021, dated 2023).
Where two headings read alike, the source gives them in different places.

Experiments:
EV-D68 = assay: microbe, parasite or virus in culture; format: cell-based, enterovirus D68 (EV-D68); settings: Enterovirus D, EVD68, RD
EV-A71 = assay: microbe, parasite or virus in culture; format: cell-based, enterovirus A71 (EV-A71); settings: Enterovirus A, EVA71, RD
CVB3 Nancy virus = assay: microbe, parasite or virus in culture; format: cell-based, coxsackievirus B3 (CVB3); settings: Enterovirus B, CVB3, Vero, read-out: EC50, Anti-CVB3 in Vero cells
[1] = test system: EV-A71 Tainan/4643/1998 2C protein; format: binding
CVB3 Nancy 2C protein = CVB3 Nancy 2C protein (Coxsackievirus B3, UniProt P03313); format: binding
Sequence of CVB3 Nancy 2C protein (P03313 1101-1429 limits assumed): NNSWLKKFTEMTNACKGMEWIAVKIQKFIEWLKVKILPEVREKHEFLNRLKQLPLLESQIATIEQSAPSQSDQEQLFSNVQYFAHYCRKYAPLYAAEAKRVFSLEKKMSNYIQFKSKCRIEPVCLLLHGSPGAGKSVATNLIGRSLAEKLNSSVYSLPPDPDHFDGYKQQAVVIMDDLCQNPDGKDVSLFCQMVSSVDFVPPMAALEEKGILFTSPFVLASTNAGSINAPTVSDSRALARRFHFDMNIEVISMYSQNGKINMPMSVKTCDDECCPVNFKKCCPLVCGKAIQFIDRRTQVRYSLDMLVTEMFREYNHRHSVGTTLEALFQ

EV-D68, EV-A71, and CVB3 = assay: organism not typed; format: cell-based; settings: for EC50: RD, read-out: EC50 values range against all EV-D68 and EV-A71 strains tested
in vitro = settings: human
EV-D68 US/MO/14-18947 = assay: microbe, parasite or virus in culture; format: cell-based, enterovirus D68 (EV-D68); settings: for EC50: Enterovirus D, EVD68, read-out: EC50, viral replication in neuronal cells (immunofluorescence, anti-VP1)
Vero cells = settings: African green monkey
RD cells = settings: human
[2] = read-out: EC50, Anti-EV-D68 US/KY/14-18953 in RD cells
[3] = read-out: EC50, EV-D68 US/IL/14-18952 (Clade B2)
[4] = read-out: EC50, EV-D68 US/IL/14-18956 (Clade B2)
[5] = read-out: EC50, EV-D68 US/KY/14-18953 (Clade D)
[6] = read-out: EC50, EV-D68 US/MO/14-18947 (Clade B1)
[7] = read-out: EC50, EV-D68 US/MO/14-18949 (Clade B1)
[8] = read-out: EC50, Anti-EV-A71 Tainan/4643/1998 in RD cells
[9] = read-out: EC50, EV-A71 Tainan/4643/1998
[10] = read-out: EC50, EV-A71 USA/CT/2016-19519
[11] = CC50 (EV-A71 USA/CT/2016-19519)
[12] = CC50 (EV-D68 US/IL/14-18952 row group)
[13] = CC50 (EV-D68 US/IL/14-18956 row group)
[14] = CC50 (EV-D68 US/KY/14-18953 row group)
[15] = CC50 (EV-D68 US/MO/14-18947 row group)
[16] = CC50 (EV-D68 US/MO/14-18949 row group)
[17] = CC50, in RD cells (Anti-EV-A71)
[18] = CC50, in RD cells (Anti-EV-D68)

Compound | EC50 (EV-D68; [2]) [nM] | EC50 (EV-A71; [8]) [nM] | EC50 (CVB3 Nancy virus) [nM] | CC50 (in vitro; [17]) [nM] | CC50 (Vero cells) [nM] | CC50 (RD cells) [nM] | also measured
CC(C)n1ncc2c(C(=O)NCCN(C)C)cc(C3CC3)nc21 [Compound 7d, 6-cyclopropyl-N-[2-(dimethylamino)ethyl]-1-(propan-2-yl)-1H-pyrazolo[3,4-b]pyridine-4-carboxamide] | 100 | 800 | 200 | 200000 | – | – | EC50 (EV-D68; [3]): 40 nM; EC50 (EV-D68; [4]): 40 nM; EC50 (EV-D68; [5]): 100 nM; EC50 (EV-D68; [6]): 100 nM; EC50 (EV-D68; [7]): 100 nM; EC50 (EV-A71; read-out: EC50, EV-A71 A71 MP4): 100 nM; EC50 (EV-A71; [9]): 100 nM; EC50 (EV-A71; [10]): 60 nM; binding to EV-A71 2C protein [1]: dose-response binding; binding to CVB3 2C protein (CVB3 Nancy 2C protein): dose-response binding; EC50 values in words (summary across viruses) (EV-D68, EV-A71, and CVB3): nanomolar range; EC50 (EV-D68, EV-A71, and CVB3): 40 to 100 nM; CC50 (in vitro; CC50 (EV-A71 Tainan/4643/1998)): 200000 nM; CC50 (in vitro; [11]): 200000 nM; CC50 (in vitro; [12]): 200000 nM; CC50 (in vitro; [13]): 200000 nM; CC50 (in vitro; [14]): 200000 nM; CC50 (in vitro; [15]): 200000 nM; CC50 (in vitro; [16]): 200000 nM; CC50 (in vitro; [18]): 200000 nM
CNCCNC(=O)c1cc(C2CC2)nc2c1cnn2C(C)C [Compound 7h, 6-cyclopropyl-N-[2-(methylamino)ethyl]-1-(propan-2-yl)-1H-pyrazolo[3,4-b]pyridine-4-carboxamide] | 200 | 200 | 200 | 236000 | > 100000 | – | EC50 (EV-D68; [3]): 200 nM; EC50 (EV-D68; [4]): 200 nM; EC50 (EV-D68; [5]): 200 nM; EC50 (EV-D68; [6]): 200 nM; EC50 (EV-D68; [7]): 200 nM; EC50 (EV-A71; read-out: EC50, EV-A71 A71 MP4): 300 nM; EC50 (EV-A71; [9]): 200 nM; EC50 (EV-A71; [10]): 100 nM; EC50 (EV-D68 US/MO/14-18947): 70 nM; EC50 (EV-D68, EV-A71, and CVB3): 60 to 300 nM; CC50 (in vitro; CC50 (EV-A71 Tainan/4643/1998)): 236000 nM; CC50 (in vitro; [11]): 236000 nM; CC50 (in vitro; [12]): 236000 nM; CC50 (in vitro; [13]): 236000 nM; CC50 (in vitro; [14]): 236000 nM; CC50 (in vitro; [15]): 236000 nM; CC50 (in vitro; [16]): 236000 nM; CC50 (in vitro; [18]): 236000 nM
CC(C)c1cc(C(=O)NCCN(C)C)c2cnn(C(C)C)c2n1 [Compound 10a, N-[2-(dimethylamino)ethyl]-1,6-bis(propan-2-yl)-1H-pyrazolo[3,4-b]pyridine-4-carboxamide] | 100 | 100 | 40 | – | > 300000 | – | EC50 (EV-D68; [3]): 90 nM; EC50 (EV-D68; [4]): 70 nM; EC50 (EV-D68; [5]): 100 nM; EC50 (EV-D68; [6]): 70 nM; EC50 (EV-D68; [7]): 80 nM; EC50 (EV-A71; read-out: EC50, EV-A71 A71 MP4): 200 nM; EC50 (EV-A71; [9]): 200 nM; EC50 (EV-A71; [10]): 60 nM; EC50 (EV-D68 US/MO/14-18947): 30 nM; EC50 (EV-D68, EV-A71, and CVB3): 60 to 300 nM
CC(CN(C)C)NC(=O)c1cc(C(C)C)nc2c1cnn2C(C)C (stereo not drawn) [Compound 10c, N-[1-(dimethylamino)propan-2-yl]-1,6-bis(propan-2-yl)-1H-pyrazolo[3,4-b]pyridine-4-carboxamide] | 100 | 1000 | 100 | 70300 | – | > 100000 | –
CNCCNC(=O)c1cc(C(C)C)nc2c1cnn2C(C)C [Compound 10d, N-[2-(methylamino)ethyl]-1,6-bis(propan-2-yl)-1H-pyrazolo[3,4-b]pyridine-4-carboxamide] | 400 | 100 | 300 | > 100000 | – | > 100000 | –
Cc1cc(C(=O)NC2CCN(C)C2)c2cnn(C(C)C)c2n1 (stereo not drawn) [Compound 12b, 6-methyl-N-(1-methylpyrrolidin-3-yl)-1-(propan-2-yl)-1H-pyrazolo[3,4-b]pyridine-4-carboxamide] | 1800 | 500 | 800 | > 300000 | > 300000 | > 300000 | –
Cc1cc(C(=O)NC2CN(C)C2)c2cnn(C(C)C)c2n1 [Compound 12c, 6-methyl-N-(1-methylazetidin-3-yl)-1-(propan-2-yl)-1H-pyrazolo[3,4-b]pyridine-4-carboxamide] | 11300 | 7300 | 3800 | > 300000 | > 300000 | > 300000 | –
CNCCNC(=O)c1cc(C)nc2c1cnn2C(C)C [Compound 12d, 6-methyl-N-(methylamino)ethyl-1-(propan-2-yl)-1H-pyrazolo[3,4-b]pyridine-4-carboxamide] | 2300 | 500 | 1400 | > 300000 | > 300000 | > 300000 | –
Cc1cc(C(=O)NCCN)c2cnn(C(C)C)c2n1 [Compound 12e, N-(2-aminoethyl)-6-methyl-1-(propan-2-yl)-1H-pyrazolo[3,4-b]pyridine-4-carboxamide] | 4700 | 700 | 3800 | > 300000 | > 300000 | > 300000 | –
CCn1ncc2c(C(=O)NCCN(C)C)cc(C)nc21 [Compound 15a, N-[2-(dimethylamino)ethyl]-1-ethyl-6-methyl-1H-pyrazolo[3,4-b]pyridine-4-carboxamide] | 18300 | – | – | – | – | > 300000 | –
CCn1ncc2c(C(=O)NCCNC)cc(C)nc21 [Compound 15b, 1-ethyl-6-methyl-N-[2-(methylamino)ethyl]-1H-pyrazolo[3,4-b]pyridine-4-carboxamide] | 58400 | > 20000 | – | – | – | > 300000 | –
CN(C)CCNC(=O)c1cc(C2CC2)nc2c1cnn2C [Compound 17, 6-cyclopropyl-N-[2-(dimethylamino)ethyl]-1-methyl-1H-pyrazolo[3,4-b]pyridine-4-carboxamide] | – | – | – | – | – | > 300000 | –
Cc1cc(CCCOc2c(C)cc(-c3noc(C(F)(F)F)n3)cc2C)on1 [pleconaril, reference compound] | – | – | – | – | – | – | viral replication (VP1 fluorescence signal) (EV-D68 US/MO/14-18947; at 50 μM): completely abolished viral replication
